# According to PubChem BioAssay AID2068 (Sanford-Burnham Center for Chemical Genomics, 2009):
# Biological target: Tyrosine-protein phosphatase non-receptor type 7 (Homo sapiens) (UniProt P35236)
# Assay: redox-dependent HePTP inhibition, mechanism study, biochemical, fluorescence (AID 2068)
# Settings: recombinant HePTP, fluorescent phosphatase assay, redox-state modulation
# Tyrosine-protein phosphatase non-receptor type 7 (Homo sapiens), sequence (P35236 whole entry, looked up): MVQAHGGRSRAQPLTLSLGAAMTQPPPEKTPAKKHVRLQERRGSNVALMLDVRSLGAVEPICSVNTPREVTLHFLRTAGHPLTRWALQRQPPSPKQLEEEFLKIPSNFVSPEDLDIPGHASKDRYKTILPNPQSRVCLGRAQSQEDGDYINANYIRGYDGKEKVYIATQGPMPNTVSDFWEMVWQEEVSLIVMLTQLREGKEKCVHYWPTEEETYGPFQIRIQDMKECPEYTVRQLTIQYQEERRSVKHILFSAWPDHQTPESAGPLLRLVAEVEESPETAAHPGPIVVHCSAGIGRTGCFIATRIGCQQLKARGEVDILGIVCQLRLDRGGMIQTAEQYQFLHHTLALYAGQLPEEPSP
smiles,measurement,value
O=C(O)CSc1cc(C(=O)c2ccccc2O)cn2c(=O)c3c(-c4ccccc4)csc3nc12,IC50,1750 nM
